Values of other authors in US8168657B2, “Solenopsin A, B and analogs and as novel angiogenesis inhibitors” (priority 2002, dated 2012).

Columns and labels:
[1] = as much as 6000 units used over a shorter time period
[2] = tested on: blood and tissue- and fluid-feeding parasites

CCCCCCCCCCC[C@H]1CCC[C@H](C)N1 (relative stereo) [Solenopsin A, trans-2-methyl 6-n-undecylpiperidine]
ill effects [1]: did not cause any ill effects | units equivalent to 250 units of the whole body extracts ([2]; synthetic version versus whole body extract, effective treatment): 1500 units | elimination of blood and tissue- and fluid-feeding parasites ([2]; synthetically produced Solenopsin A): complete elimination
